Laboratory results taken from US20120196899A1, “METHODS AND PRODUCTS FOR TREATING INFLAMMATION” (Rock Creek Pharmaceuticals, Inc., priority 2010, published 2012).
Values joined by “and” are separate entries in the source; they are usually repeats but may differ in a detail not shown here. Equal entries are not always repeated.

Assay: Necropsy observations and organ weights, day 15
Assay type: in vivo, Sprague-Dawley rats
Details: for Tissue Collection Weights: Brain / Tissue Collection Weights: Heart / Tissue Collection Weights: Kidneys / Tissue Collection Weights: Liver / Tissue Collection Weights: Lungs / Tissue Collection Weights: Ovaries/uterus / Tissue Collection Weights: Small intestine / Tissue Collection Weights: Spleen / Tissue Collection Weights: Thymus / Tissue Collection Weights: Prostate / Tissue Collection Weights: Testes: individual animals; for Organ Weight Brain, Mean / Organ Weight Heart, Mean / Organ Weight Kidneys, Mean / Organ Weight Liver, Mean / Organ Weight Lungs, Mean / Organ Weight Prostate, Mean / Organ Weight Small intestine, Mean / Organ Weight Spleen, Mean / Organ Weight Testes, Mean / Organ Weight Thymus, Mean: male rats
Procedure: Body weight and food consumption was measured daily for 14 days. On day 15, urine was collected on all surviving animals. The animals were euthanized and bled via cardiac puncture, and blood was collected for analysis. Tissues were collected, weighed, evaluated for gross abnormalities, and stored in 10% neutral-buffered formalin.
On day 15, urine was collected on all surviving animals for urinalysis. The animals were euthanized and bled via cardiac puncture. Blood was collected for hematology, clinical chemistry, and coagulation analysis. Tissues were collected, weighed, and stored in 10% neutral-buffered formalin for possible future analysis.

[1] = Group B, 0.1 mg/kg, females, 0.1 mg/kg
[2] = Group B, 0.1 mg/kg, males, 0.1 mg/kg
[3] = Group C, 0.75 mg/kg, females, 0.75 mg/kg
[4] = Group C, 0.75 mg/kg, males, 0.75 mg/kg
[5] = anatabine 0.1 mg/kg single i.v.
[6] = anatabine 0.75 mg/kg single i.v.
[7] = female animals, 0.1 mg/kg, group mean
[8] = female animals, 0.75 mg/kg, group mean

C1=CCC(c2cccnc2)NC1 (racemic) [Anatabine, 1,2,3,6-tetrahydro-[2,3′]bipyridinyl]
Tissue Collection Weights: Brain [1]: 1.91 g and 1.89 g (2×) and 1.75 g and 1.86 g
Tissue Collection Weights: Heart [1]: 1.29 g and 1.12 g and 0.95 g and 1.05 g and 1.25 g
Tissue Collection Weights: Kidneys [1]: 2.46 g and 2.02 g (2×) and 2.14 g and 2.25 g
Tissue Collection Weights: Liver [1]: 11.54 g and 10.09 g and 9.94 g and 12.94 g and 9.67 g
Tissue Collection Weights: Lungs [1]: 1.42 g and 1.39 g and 1.15 g and 1.52 g and 1.59 g
Tissue Collection Weights: Ovaries/uterus [1]: 0.96 g and 1.79 g and 0.84 g and 1.42 g and 0.70 g
Tissue Collection Weights: Small intestine [1]: 0.87 g and 0.71 g and 0.55 g and 0.49 g and 0.63 g
Tissue Collection Weights: Spleen [1]: 0.79 g and 0.62 g and 0.51 g and 0.67 g and 0.65 g
Tissue Collection Weights: Thymus [1]: 0.68 g and 0.59 g and 0.49 g and 0.71 g and 0.73 g
Tissue Collection Weights: Brain [2]: 2.35 g and 2.16 g and 2.24 g and 2.11 g and 1.88 g
Tissue Collection Weights: Heart [2]: 1.71 g and 1.59 g and 1.97 g and 1.60 g and 1.85 g
Tissue Collection Weights: Kidneys [2]: 3.55 g and 3.33 g and 3.70 g and 3.27 g and 3.99 g
Tissue Collection Weights: Liver [2]: 17.92 g and 15.45 g and 16.98 g and 16.32 g and 17.38 g
Tissue Collection Weights: Lungs [2]: 2.31 g and 1.77 g and 2.08 g and 1.91 g and 1.83 g
Tissue Collection Weights: Prostate [2]: 0.72 g and 0.49 g and 0.73 g and 0.53 g and 0.48 g
Tissue Collection Weights: Small intestine [2]: 0.61 g and 0.96 g and 0.88 g and 0.50 g and 0.35 g
Tissue Collection Weights: Spleen [2]: 0.91 g and 0.66 g and 0.82 g and 0.93 g and 0.76 g
Tissue Collection Weights: Testes [2]: 3.69 g and 3.64 g and 3.14 g and 3.35 g and 3.29 g
Tissue Collection Weights: Thymus [2]: 0.74 g (2×) and 0.76 g and 0.71 g and 0.81 g
Tissue Collection Weights: Brain [3]: 1.99 g and 1.93 g and 1.73 g and 2.06 g and 1.81 g
Tissue Collection Weights: Heart [3]: 1.09 g and 1.21 g and 1.23 g and 1.03 g and 0.99 g
Tissue Collection Weights: Kidneys [3]: 2.08 g and 2.20 g and 2.68 g and 2.36 g
Tissue Collection Weights: Liver [3]: 10.71 g and 8.65 g and 11.37 g and 10.19 g
Tissue Collection Weights: Lungs [3]: 1.46 g and 1.39 g and 1.62 g and 1.30 g and 1.49 g
Tissue Collection Weights: Ovaries/uterus [3]: 0.81 g and 1.50 g and 0.72 g and 1.23 g and 3.65 g
Tissue Collection Weights: Small intestine [3]: 0.72 g and 0.37 g and 0.85 g and 0.47 g and 1.34 g
Tissue Collection Weights: Spleen [3]: 0.70 g and 0.65 g (2×) and 0.51 g and 0.49 g
Tissue Collection Weights: Thymus [3]: 0.56 g and 0.53 g and 0.63 g and 0.52 g and 0.54 g
Tissue Collection Weights: Brain [4]: 2.01 g and 2.19 g and 2.12 g and 2.00 g and 2.02 g
Tissue Collection Weights: Heart [4]: 1.52 g and 1.38 g and 1.56 g and 1.39 g and 1.29 g
Tissue Collection Weights: Kidneys [4]: 3.45 g and 2.77 g and 3.49 g and 3.16 g and 2.89 g
Tissue Collection Weights: Liver [4]: 14.92 g and 13.91 g and 14.70 g and 14.01 g and 14.94 g
Tissue Collection Weights: Lungs [4]: 1.86 g and 1.97 g and 1.72 g and 1.95 g and 1.58 g
Tissue Collection Weights: Prostate [4]: 0.49 g (2×) and 0.65 g and 0.46 g and 0.45 g
Tissue Collection Weights: Small intestine [4]: 0.54 g and 1.41 g and 0.56 g and 0.41 g and 0.47 g
Tissue Collection Weights: Spleen [4]: 0.71 g and 0.63 g and 0.79 g and 0.93 g and 0.64 g
Tissue Collection Weights: Testes [4]: 3.19 g and 3.84 g and 3.03 g and 3.28 g and 2.70 g
Tissue Collection Weights: Thymus [4]: 1.02 g and 0.52 g and 0.67 g and 0.69 g and 0.47 g
Organ Weight Brain, Mean [5]: 2.15 g
Organ Weight Heart, Mean [5]: 1.74 g
Organ Weight Kidneys, Mean [5]: 3.57 g
Organ Weight Liver, Mean [5]: 16.81 g
Organ Weight Lungs, Mean [5]: 1.98 g
Organ Weight Prostate, Mean [5]: 0.59 g
Organ Weight Small intestine, Mean [5]: 0.66 g
Organ Weight Spleen, Mean [5]: 0.82 g
Organ Weight Testes, Mean [5]: 3.42 g
Organ Weight Thymus, Mean [5]: 0.75 g
Organ Weight Brain, Mean [6]: 2.07 g
Organ Weight Heart, Mean [6]: 1.43 g
Organ Weight Kidneys, Mean [6]: 3.15 g
Organ Weight Liver, Mean [6]: 14.50 g
Organ Weight Lungs, Mean [6]: 1.82 g
Organ Weight Prostate, Mean [6]: 0.51 g
Organ Weight Small intestine, Mean [6]: 0.68 g
Organ Weight Spleen, Mean [6]: 0.74 g
Organ Weight Testes, Mean [6]: 3.21 g
Organ Weight Thymus, Mean [6]: 0.67 g
Organ Weight Brain [7]: 1.86 g
Organ Weight Heart [7]: 1.13 g
Organ Weight Kidneys [7]: 2.18 g
Organ Weight Liver [7]: 10.84 g
Organ Weight Lungs [7]: 1.41 g
Organ Weight Ovaries/uterus [7]: 1.14 g
Organ Weight Small intestine [7]: 0.65 g
Organ Weight Spleen [7]: 0.65 g
Organ Weight Thymus [7]: 0.64 g
Organ Weight Brain [8]: 1.90 g
Organ Weight Heart [8]: 1.11 g
